Measurements reported in patent US5889026A, “4-hydroxy-piperodine derivatives” (Hoffmann-La Roche Inc., priority 1996, dated 1999).
Where a name gives a salt, the structure may show the parent alone. Read-outs that look alike come from different tables or passages of the source.

How the values were obtained:
[1] = molecular target: T1, 3H-Ro 25-6981 binding (NMDA receptor) (Rattus norvegicus, UniProt P35439+Q00960); assay: 3H-Ro 25-6981 binding; conditions: rat brain membranes (minus cerebellum and medulla oblongata); 5 nM 3H-Ro 25-6981; 2 hours at 4° C., pH 7.4
T1 construct: NR1 splice forms mixed
T1 sequence (Q00960 27-1482, other chains not shown): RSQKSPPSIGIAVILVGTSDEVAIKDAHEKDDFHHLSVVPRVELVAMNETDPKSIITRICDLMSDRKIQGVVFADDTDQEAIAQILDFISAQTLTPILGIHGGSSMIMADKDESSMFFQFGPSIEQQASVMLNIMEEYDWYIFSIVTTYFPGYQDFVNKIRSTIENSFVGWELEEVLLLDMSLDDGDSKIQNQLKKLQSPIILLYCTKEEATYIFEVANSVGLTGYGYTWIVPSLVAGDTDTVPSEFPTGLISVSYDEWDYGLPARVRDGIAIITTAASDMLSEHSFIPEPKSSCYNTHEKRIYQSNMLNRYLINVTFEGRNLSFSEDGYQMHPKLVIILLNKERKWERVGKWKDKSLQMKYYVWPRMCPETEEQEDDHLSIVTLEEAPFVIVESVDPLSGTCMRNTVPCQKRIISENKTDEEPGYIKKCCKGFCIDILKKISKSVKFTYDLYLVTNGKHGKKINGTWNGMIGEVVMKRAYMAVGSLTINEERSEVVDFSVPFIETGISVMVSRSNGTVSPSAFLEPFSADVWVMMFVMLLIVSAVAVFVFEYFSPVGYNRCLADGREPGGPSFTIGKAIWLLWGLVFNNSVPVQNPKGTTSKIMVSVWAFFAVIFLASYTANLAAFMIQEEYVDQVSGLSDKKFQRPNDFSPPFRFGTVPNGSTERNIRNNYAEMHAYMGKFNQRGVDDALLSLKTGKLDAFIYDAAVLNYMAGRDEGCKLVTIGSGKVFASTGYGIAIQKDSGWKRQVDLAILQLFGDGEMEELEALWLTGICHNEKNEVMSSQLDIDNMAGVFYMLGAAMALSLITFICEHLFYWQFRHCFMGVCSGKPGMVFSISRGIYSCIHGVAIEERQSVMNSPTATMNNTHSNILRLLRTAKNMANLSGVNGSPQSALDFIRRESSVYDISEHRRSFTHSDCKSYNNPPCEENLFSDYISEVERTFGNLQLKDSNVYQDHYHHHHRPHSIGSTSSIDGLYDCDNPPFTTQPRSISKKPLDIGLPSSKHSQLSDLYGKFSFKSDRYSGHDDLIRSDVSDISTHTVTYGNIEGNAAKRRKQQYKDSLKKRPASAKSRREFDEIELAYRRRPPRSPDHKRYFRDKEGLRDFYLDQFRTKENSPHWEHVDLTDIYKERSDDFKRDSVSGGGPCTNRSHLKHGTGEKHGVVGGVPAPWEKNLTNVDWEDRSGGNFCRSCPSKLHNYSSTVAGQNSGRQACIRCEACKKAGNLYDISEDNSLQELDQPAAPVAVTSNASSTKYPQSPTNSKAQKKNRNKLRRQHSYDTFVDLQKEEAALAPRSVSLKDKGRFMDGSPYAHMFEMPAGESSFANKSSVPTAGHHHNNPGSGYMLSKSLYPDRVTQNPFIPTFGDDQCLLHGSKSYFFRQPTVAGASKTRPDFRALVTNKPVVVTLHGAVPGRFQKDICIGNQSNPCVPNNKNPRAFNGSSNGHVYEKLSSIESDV

[2] = molecular target: 3H-Prazosine binding; assay: 3H-Prazosine binding; conditions: rat brain membranes (minus cerebellum and medulla oblongata); 0.2 nM 3H-Prazosine; 30 minutes at room temperature, pH 7.4
Procedure: 3H-Prazosine binding Male Fullinsdorf albino rats weighing between 150-200 g were used. Membranes were prepared by homogenization of the whole brain minus cerebellum and medulla oblongata with a Plytron (10.000 rpm, 30 seconds), in 25 volumes of a cold Tris-HCl 50 mM, EDTA 10 mM, pH 7.1 buffer. The homogenate was centrifuged at 48.000 g for 10 minutes at 4° C. The pellet was resuspended using the Polytron in the same volume of buffer and the homogenate was incubated at 37° C. for 10 minutes. After centrifugation, the pellet was homogenized in the same buffer and frozen at -80° C. for at least 16 hours but not more than 10 days. For the binding assay the homogenate was thawed at 37° C., centrifuged and the pellet was washed three times as above in a Tris-HCl 5 mM, pH 7.4 cold buffer. The final pellet was resuspended in the same buffer and used at a final concentration of […]. 3H-Prazosine binding experiments were performed using a Tris-HCl 50 mM, pH 7.4 buffer. For displacement experiments 0.2 nM of 3H-Prazosine were used and non specific binding was measured using […] of Chlorpromazine. The incubation time was 30 minutes at room temperature and the assay was stopped by filtration on Whatman GF/B glass fiber filters (Unifilter-96, Canberra Packard S. A., Zurich, Switzerland). The filters were washed 5 times with cold buffer. The radioactivity on the filter was counted on a Packard Top-count microplate scintillation counter after addition of […] of microscint 40 (Canberra Packard S. A., Zurich, Switzerland). The effects of compounds were measured using a minimum of 8 concentrations and repeated at least once. The pooled normalized values were analyzed using a non-linear regression calculation program which provide IC50 with their relative upper and lower 95% confidence limits (RS1, BBN, USA).

[3] = molecular target: T2, NR1C + NR2A (NMDAR1C-NMDAR2A) (Rattus norvegicus, UniProt Q00959); assay: Electrophysiology on recombinant NMDA receptors, NR1C + NR2A, Xenopus laevis oocytes; assay type: cell-based; conditions: read-out: Electrophysiology, % block by 10 μM, NR1C + NR2A
T2 construct: expressed in transfected cells; host or cells: Xenopus laevis oocytes injected with mRNA (1:1 mixture)
T2 sequence (Q00959 23-1464, other chains not shown): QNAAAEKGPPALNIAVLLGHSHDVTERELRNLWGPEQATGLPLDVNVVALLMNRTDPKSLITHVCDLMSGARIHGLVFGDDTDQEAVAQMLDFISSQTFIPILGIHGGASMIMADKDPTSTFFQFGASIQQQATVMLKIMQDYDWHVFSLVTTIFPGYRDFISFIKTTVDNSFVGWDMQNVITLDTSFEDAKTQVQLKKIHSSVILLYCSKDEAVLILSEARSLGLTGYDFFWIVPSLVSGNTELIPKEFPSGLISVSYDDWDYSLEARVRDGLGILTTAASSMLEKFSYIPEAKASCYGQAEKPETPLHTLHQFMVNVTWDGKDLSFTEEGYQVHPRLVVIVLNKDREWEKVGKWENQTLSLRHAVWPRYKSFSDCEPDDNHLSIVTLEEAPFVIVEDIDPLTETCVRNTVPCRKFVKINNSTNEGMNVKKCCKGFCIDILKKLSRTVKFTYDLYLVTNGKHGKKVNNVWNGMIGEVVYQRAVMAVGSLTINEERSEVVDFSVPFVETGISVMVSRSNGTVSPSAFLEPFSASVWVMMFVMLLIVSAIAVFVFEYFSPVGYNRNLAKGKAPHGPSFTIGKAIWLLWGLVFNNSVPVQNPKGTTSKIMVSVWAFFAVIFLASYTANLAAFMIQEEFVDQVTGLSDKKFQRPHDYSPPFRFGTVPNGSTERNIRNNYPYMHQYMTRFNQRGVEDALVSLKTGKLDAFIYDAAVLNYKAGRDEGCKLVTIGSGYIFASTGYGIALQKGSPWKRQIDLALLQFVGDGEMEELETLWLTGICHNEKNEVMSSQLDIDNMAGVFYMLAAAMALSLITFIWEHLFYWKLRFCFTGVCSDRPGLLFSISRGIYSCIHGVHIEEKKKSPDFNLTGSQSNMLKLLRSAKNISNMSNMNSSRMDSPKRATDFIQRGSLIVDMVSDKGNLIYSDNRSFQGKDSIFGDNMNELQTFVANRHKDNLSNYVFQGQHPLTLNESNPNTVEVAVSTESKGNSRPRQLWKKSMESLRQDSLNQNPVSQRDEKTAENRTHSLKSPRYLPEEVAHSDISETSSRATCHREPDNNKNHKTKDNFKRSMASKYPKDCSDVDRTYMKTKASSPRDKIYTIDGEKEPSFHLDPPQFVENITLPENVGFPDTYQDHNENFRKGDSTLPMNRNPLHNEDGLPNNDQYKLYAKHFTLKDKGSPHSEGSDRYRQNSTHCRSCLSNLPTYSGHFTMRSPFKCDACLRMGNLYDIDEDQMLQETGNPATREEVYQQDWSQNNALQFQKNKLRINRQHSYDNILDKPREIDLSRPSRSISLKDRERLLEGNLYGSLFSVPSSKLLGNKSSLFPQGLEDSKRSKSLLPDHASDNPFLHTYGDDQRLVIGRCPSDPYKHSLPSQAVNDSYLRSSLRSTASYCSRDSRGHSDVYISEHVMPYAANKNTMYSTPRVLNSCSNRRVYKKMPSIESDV
Procedure: (§1) Oocytes of South African frogs (Xenopus laevis) were used for expressing either a combination of the NMDAR1C and NMDAR2A subunits or the NMDAR1C and NMDAR2B subunits. Approximately 3 fmol of a 1:1 mixture of the respective MRNA species were injected into every oocyte. Four to five days later, the ion current through the NMDA receptor channels was measured in voltage clamp experiments (see Methfessel et al., 1986, Pflugers Arch. 407:577 for the methods of oocyte expression and voltage-clamping). The membrane potential was clamped to -80 mV and the receptors were activated by applying a modified Ringer,s solution containing the NMDA-receptor agonists L-asparatate (Asp) and glycine (Gly). Different agonist concentrations were chosen for either subunit combination to account for the different agonist sensitivities of the two types of receptors (70 mM Asp plus 2.5 mM Gly for NMDAR1C-NMDAR2A and 15 mM Asp plus 0.2 mM Gly for NMDAR1C-NMDAR2B). The agonists were applied for 15 s intervals once every 2.5 min by rapid superfusion of the oocyte with agonist containing solution and the amplitude of the agonist-evoked current was measured immediately before the end of each application. After a series of initial control applications, the antagonist to be tested was added to both, the basal Ringer,s and the agonist containing solution. The antagonist concentration applied to oocytes expressing the NR2A subunit was 10 mmol/l, whereas 0.1 mmol/l were applied to the NR2B expressing oocytes. Four to eight oocytes were tested for every compound and NMDA receptor subtype. Oocytes were exposed to the compounds for 5 to 30 min depending on the time needed for reaching an equilibrium block of the NMDA receptor current. For every oocyte the decrease of the current amplitude was expressed as a percentage of the control current measured before application of the compound.

[4] = molecular target: T3, NR1C + NR2B (NMDAR1C-NMDAR2B) (Rattus norvegicus, UniProt P35439+Q00960); assay: Electrophysiology on recombinant NMDA receptors, NR1C + NR2B, Xenopus laevis oocytes; assay type: cell-based; conditions: read-out: Electrophysiology, % block by 0.1 μM, NR1C + NR2B
T3 construct: expressed in transfected cells; host or cells: Xenopus laevis oocytes injected with mRNA (1:1 mixture)
T3 sequence (Q00960 27-1482, other chains not shown): as the sequence (Q00960 27-1482, other chains not shown) above
Procedure: as §1

[5] = 10 μM compound, Xenopus laevis oocytes, -80 mV, mean of four to eight oocytes
[6] = 0.1 μM compound, Xenopus laevis oocytes, -80 mV, mean of four to eight oocytes

IC50 [1]	IC50 [2]	inhibition at 10 µM [3, 5]	inhibition at 0.1 µM [4, 6]	Structure (SMILES)	inhibition at 10 µM [3]	inhibition at 0.1 µM [4]
0.02 µM	9.7 µM	10%	89%	Cc1ccc(CC2(O)CCN(CC(O)Cc3ccc(O)cc3)CC2)cc1 (racemic) [M/31, (RS)-1-[2-Hydroxy-3-(4-hydroxy-phenyl)-propyl]-4-(4-methyl-benzyl)-piperidin-4-ol]	–	–
–	3.5 µM	31%	88%	Cc1ccc(CC2(O)CCN(CCOc3ccc(O)cc3)CC2)cc1 [C/9, 1-[2-(4-Hydroxy-phenoxy)-ethyl]-4-(4-methyl-benzyl)-piperidin-4-ol]	–	–
0.04 µM	3 µM	–	–	Oc1ccc(OCCN2CCC(O)(Cc3ccc(F)cc3)CC2)cc1 [D/10, 4-(4-Fluoro-benzyl)-1-[2-(4-hydroxy-phenoxy)-ethyl]-piperidin-4-ol]	–	–
0.06 µM	6 µM	–	–	CS(=O)(=O)Nc1ccc(OCCN2CCC(O)(Cc3ccc(F)cc3)CC2)cc1 [F/12, N-(4-{2-[4-(4-fluoro-benzyl)-4-hydroxy-piperidin-1-yl]-ethoxy}-phenyl)-methanesulfonamide]	–	–
0.03 µM	9 µM	–	–	CS(=O)(=O)Nc1ccc(OCCN2CCC(O)(Cc3ccc(Cl)cc3)CC2)cc1 [G/13, N-(4-{2-[4-(4-Chloro-benzyl)-4-hydroxy-piperidin-1-yl]-ethoxy}-phenyl)-methanesulfonamide]	–	–
0.04 µM	1.8 µM	–	–	CS(=O)(=O)Nc1ccc(OCCCN2CCC(O)(Cc3ccc(F)cc3)CC2)cc1 [H/14, N-(4-{3-[4-(4-Fluoro-benzyl)-4-hydroxy-piperidin-1-yl]-propoxy}-phenyl)-methanesulfonamide]	–	–
0.04 µM	2.5 µM	–	–	Cc1ccc(CC2(O)CCN(C(C)COc3ccc(O)cc3)CC2)cc1 (stereo not drawn) [I/22, 1-[2-(4-Hydroxy-phenoxy)-1-methyl-ethyl]-4-(4-methyl-benzyl)-piperidin-4-ol]	–	–
0.04 µM	30 µM	10%	83%	Cc1ccc(CC2(O)CCN(CC(=O)Nc3ccc(O)cc3)CC2)cc1 [K/24, 2-[4-Hydroxy-4-(4-methyl-benzyl)-piperidin-1-yl]-N-(4-hydroxy-phenyl)-acetamide]	–	–
0.01 µM	0.8 µM	–	–	Cc1ccc(CC2(O)CCN(CCOC(=O)c3ccc(O)cc3)CC2)cc1 [O/34, 4-Hydroxy-benzoic acid 2-[4-hydroxy-4-(4-methyl-benzyl)-piperidin-1-yl]ethylester]	–	–
0.003 µM	0.26 µM	–	–	Cc1ccc(CC2(O)CCN(CCCOC(=O)c3ccc(O)cc3)CC2)cc1 [P/35, 4-Hydroxy-benzoic acid 3-[4-hydroxy-4-(4-methyl-benzyl)-piperidin-1-yl]-propylester]	–	–
0.006 µM	5.3 µM	8%	42%	Cc1ccc(CC2(O)CCN(CCNC(=O)c3ccc(O)cc3)CC2)cc1 [R/37, 4-Hydroxy-N-[2-[4-hydroxy-4-(4-methyl-benzyl)-piperidin-1-yl]-ethyl]-benzamide]	–	–
0.009 µM	2.3 µM	–	–	Cc1ccc(CC2(O)CCN(CCCNC(=O)c3ccc(O)cc3)CC2)cc1 [T/39, 4-Hydroxy-N-[3-[4-hydroxy-4-(4-methyl-benzyl)-piperidin-1-yl]-propyl]-benzamide]	–	–
0.008 µM	3 µM	–	–	Cc1ccc(CC2(O)CCN(C/C=C/c3ccc(O)cc3)CC2)cc1 [V/41, (E)-1-[3-(4-Hydroxy-phenyl)-allyl]-4-(4-methyl-benzyl)-piperidin-4-ol]	–	–

Continued, molecule first:

Structure (SMILES)	IC50 [1]	IC50 [2]	inhibition at 10 µM [3, 5]	inhibition at 0.1 µM [4, 6]	inhibition at 10 µM [3]	inhibition at 0.1 µM [4]
Cc1ccc(CC2(O)CCN(CC(O)COc3ccc(O)cc3)CC2)cc1 (racemic) [A/1, (RS)-1-[2-Hydroxy-3-(4-hydroxy-phenoxy)-propyl]-4-(4-methyl-benzyl)-piperidin-4-ol hydrochloride]	0.015 µM	1.5 µM	–	–	29%	96%
Oc1ccc(CC(O)CN2CCC(O)(Cc3ccccc3)CC2)cc1 (racemic) [L/30, (RS)-4-Benzyl-1-[2-hydroxy-3-(4-hydroxy-phenyl)-propyl]-piperidin-4-ol]	0.06 µM	7.4 µM	–	–	–	–
Oc1ccc(CC(O)CN2CCC(O)(Cc3ccc(Cl)cc3)CC2)cc1 (racemic) [N/32, (RS)-4-(4-Chloro-benzyl)-1-[2-hydroxy-3-(4-hydroxy-phenyl)-propyl]-piperidin-4-ol]	0.04 µM	9.2 µM	19%	81%	–	–
Cc1ccc(CC2(O)CCN(CC(O)Cc3ccc(O)c(F)c3)CC2)cc1 (racemic) [W/94, (RS)-1-[3-(3-Fluoro-4-hydroxy-phenyl)-2-hydroxy-propyl]-4-(4-methyl-benzyl)-piperidin-4-ol hydrochloride]	0.02 µM	6.6 µM	–	–	–	–
Oc1ccc(OC[C@@H](O)CN2CCC(O)(Cc3ccccc3)CC2)cc1 [B/5, (S)-4-Benzyl-1-[2-hydroxy-3-(4-hydroxy-phenoxy)-propyl]-piperidin-4-ol]	0.06 µM	4 µM	–	–	–	–
Cc1ccc(CC2(O)CCN(CCOc3ccc(NS(C)(=O)=O)cc3)CC2)cc1 [E/11, N-(4-{2-[4-hydroxy-4-(4-methyl-benzyl)-piperidin-1-yl]-ethoxy}-phenyl)-methanesulfonamide hydrochloride]	0.03 µM	5 µM	–	–	27%	91%
O=C(CN1CCC(O)(Cc2ccccc2)CC1)Nc1ccc(O)cc1 [J/23, 2-(4-Benzyl-4-hydroxy-piperidin-1-yl)-N-(4-hydroxy-phenyl)-acetamide]	0.07 µM	20 µM	–	–	–	–
O=C(NCCN1CCC(O)(Cc2ccccc2)CC1)c1ccc(O)cc1 [Q/36, N-[2-(4-Benzyl-4-hydroxy-piperidin-1-yl)-ethyl]-4-hydroxy-benzamide]	0.01 µM	5 µM	–	–	–	–
O=C(NCCCN1CCC(O)(Cc2ccccc2)CC1)c1ccc(O)cc1 [S/38, N-[3-(4-Benzyl-4-hydroxy-piperidin-1-yl)-propyl]-4-hydroxy-benzamide]	0.016 µM	7.3 µM	–	–	–	–
